Measurements published in US9290503B2, “Tricyclic compound derivatives useful in the treatment of neoplastic diseases, inflammatory disorders and immunomodulatory disorders” (CHEMBRIDGE CORPORATION, priority 2006, dated 2016).

Assays:
RPMI-8226 = assay: Cell proliferation assay, MTT, RPMI-8226; type: cell-based; settings: Homo sapiens, RPMI-8226, 72 h, standard 3-day proliferation assay
Source text: (§1) IGF1R and other tyrosine kinase inhibitors can inhibit the proliferation of certain cancer cell lines indicating their possible therapeutic utility for treating the corresponding cancer types. Cancer cell lines of interest and control normal lines, including CHO, HEK293, BA/F3, COLO205, PC3, DU145, MCF7, Panc1, ACHN, Hep G2, H460, K562, TT, U87-MG, CAOV-3, SK-MEL5, Karpas 299 and human multiple myeloma cell lines H929, MM1s, MM1r, UTMC2, CPM2, KMS11, My5, KMS12PE, My7, JJN3, KMS18, U266, SKMM2, RPMI-8226 are plated in white, clear-bottomed 384-well cell culture plates at 2500-5000 cells per well and supplied with dilutions of tested compounds After a desired period of time (typically 3 days), the number of viable cells is quantitated by using Cell Titer-Glo Luminescent Cell Viability Assay (Promega), a cell proliferation assay system based on detection of total amount of ATP present as a measure of cell metabolic activity. The plated cells are mixed with the Cell Titer-Glo developing reagent and counted in a luminescence multiwell plate reader according to the standard manufacturer's protocol to generate IC50 curves for cell proliferation inhibition. […] Alternatively, viable cells are quantitated by using the conventional colorimetric MTT assay. […] The formazan is then solubilized, and the concentration determined by optical density at 570 nm. […]

SKMM2 = assay: Cell proliferation assay, MTT, SKMM2; type: cell-based; settings: Homo sapiens, SK-MM-2, 72 h, standard 3-day proliferation assay
Source text: as §1

My5 = assay: Cell proliferation assay, MTT, My5; type: cell-based; settings: Homo sapiens, 72 h, standard 3-day proliferation assay
Source text: as §1

JJN3 = assay: Cell proliferation assay, MTT, JJN3; type: cell-based; settings: Homo sapiens, JJN-3, 72 h, standard 3-day proliferation assay
Source text: as §1

[1] = test system: HEK293 (human normal embryonic kidney); assay: Cell proliferation assay, MTT, HEK293; type: cell-based; settings: HEK293, 72 h, standard 3-day proliferation assay, read-out: HEK IC50
Source text: as §1

[2] = test system: CHO (chinese hamster ovary); assay: Cell proliferation assay, MTT, CHO; type: cell-based; settings: Cricetulus griseus, 72 h, standard 3-day proliferation assay
Source text: as §1

MM1r = assay: Cell proliferation assay, MTT, MM1r; type: cell-based; settings: Homo sapiens, MM.1R, 72 h, standard 3-day proliferation assay
Source text: as §1

MM1s = assay: Cell proliferation assay, MTT, MM1s; type: cell-based; settings: Homo sapiens, MM1.S, 72 h, standard 3-day proliferation assay
Source text: as §1

CPM2 = assay: Cell proliferation assay, MTT, CPM2; type: cell-based; settings: Homo sapiens, 72 h, standard 3-day proliferation assay
Source text: as §1

KMS12PE = assay: Cell proliferation assay, MTT, KMS12PE; type: cell-based; settings: Homo sapiens, KMS-12-PE, 72 h, standard 3-day proliferation assay
Source text: as §1

KMS18 = assay: Cell proliferation assay, MTT, KMS18; type: cell-based; settings: Homo sapiens, KMS18, 72 h, standard 3-day proliferation assay
Source text: as §1

My7 = assay: Cell proliferation assay, MTT, My7; type: cell-based; settings: Homo sapiens, 72 h, standard 3-day proliferation assay
Source text: as §1

UTMC2 = assay: Cell proliferation assay, MTT, UTMC2; type: cell-based; settings: Homo sapiens, UTMC2, 72 h, standard 3-day proliferation assay
Source text: as §1

H929 = assay: Cell proliferation assay, MTT, H929; type: cell-based; settings: Homo sapiens, NCI-H929, 72 h, standard 3-day proliferation assay
Source text: as §1

U266 = assay: Cell proliferation assay, MTT, U266; type: cell-based; settings: Homo sapiens, U-266, 72 h, standard 3-day proliferation assay
Source text: as §1

KMS11 = assay: Cell proliferation assay, MTT, KMS11; type: cell-based; settings: Homo sapiens, KMS-11, 72 h, standard 3-day proliferation assay
Source text: as §1

human myeloma cell lines [3] = assay: Effect on cell cycle, PI staining; type: cell-based; settings: sensitive cell lines; 24 hours; 0.6 μM and 1.8 μM
Procedure: (§2) FIG. 6 depicts the effect of compound (2a) (i.e., CRL 103142) and compound (2b) (i.e., CRL 130323) on cell cycle. 4 human myeloma cell lines (3 sensitive and 1 resistant) were incubated for 24 hrs with indicated concentrations of compound (2a) and compound (2b) and effect on cell cycle was assessed by PI staining. Results are reported as percentage of cells in G0-G1 or S phase.
4 human myeloma cell lines (3 sensitive and 1 resistant) were incubated for 24 hours with the compounds of the invention, including compounds (2a) and (2b), with a concentration of 0.6 μM and 1.8 μM and effect on cell cycle was assessed by PI staining. Results are reported as percentage of cells in G0-G1 or S phase.

[4] = test system: multiple myeloma cell line H929; assay: Myeloma-selective cytotoxicity (FIG. 11), H929; type: cell-based, human
Source text: (§3) All the above were active in the multiple myeloma cell line H929.

normal cell line CHO = assay: Myeloma-selective cytotoxicity (FIG. 11), CHO; type: cell-based, chinese hamster
Source text: as §3

normal cell line HEK293 = assay: Myeloma-selective cytotoxicity (FIG. 11), HEK293; type: cell-based, human
Source text: as §3

[5] = test system: myeloma cells of primary patient sample; assay: Induction of apoptosis in primary patient sample; type: cell-based, human; settings: for apoptosis of myeloma cells: primary patient sample
Source text: (§4) FIG. 8 depicts the apoptosis of myeloma cells induced by the compounds of the invention. Primary patient sample exposed to DMSO or compound (2a) (i.e., CRL 103142) or compound (2b) (i.e., CRL 130323) for 24 hr and indicated concentrations. LUQ-% viable myeloma cells and LLQ-% viable non-myeloma cells.
as §4, with “9” for “8”, “48” for “24”
as §4, with “10” for “8”, “96” for “24”
Primary patient sample exposed to DMSO or the compounds of the invention for 24 hours, 48 hours, and 96 hours and with a concentration of 0.4 μM, 0.6 μM, 1.2 μM, and 1.8 μM. LUQ-% viable myeloma cells and LLQ-% viable non-myeloma cells. The compounds of the invention included significant apoptosis of myeloma cells (FIGS. 8-10).

IGF1R tyrosine kinase = target: T1, IGF1R tyrosine kinase (Homo sapiens, UniProt P08069); assay: IGF1R tyrosine kinase assay (Kinase-Glo ATP depletion or PT66/PT100 AlphaScreen); type: biochemical; settings: FIG. 12
T1 construct: purified recombinant, 6×His- or GST-tagged kinase domain fragments of the corresponding RTKs expressed in baculovirus system; host or cells: baculovirus system
Procedure: To determine inhibition of several tyrosine kinases, such as IGF1R, InsR, Alk, TrkA and Jak2, kinase assays are conducted using either Kinase-Glo (Promega) or AlphaScreen (PerkinElmer) kinase assay platforms. The Kinase-Glo Luminescent Kinase Assay is a homogeneous method for measuring kinase activity by determining the amount of ATP remaining after a kinase reaction. The luminescent signal is proportional to the amount of ATP and inversely proportional to the amount of kinase activity. Tyrosine kinase PT66 AlphaScreen Assay is a high-sensitivity homogeneous, anti-phosphotyrosine antibody-mediated luminescent proximity method measuring incorporation of phosphate in synthetic poly(Glu-Tyr) substrate. The kinase preparations used consist of purified recombinant, 6×His- or GST-tagged kinase domain fragments of the corresponding RTKs expressed in baculovirus system.
The IGF1R tyrosine kinase is assayed in Kinase-Glo ATP depletion assay using the synthetic polymer poly(Glu-Tyr, 4:1) (Sigma Chemicals) as a phosphoacceptor substrate. Each reaction mixture consists of a total volume of 10 μl and contains 40 ng of the enzyme, 5 μg of poly(Glu-Tyr), 10 μM of ATP and variable concentrations of test compounds. The mixtures also contain 50 mM Tris-HCl, pH 7.5; 5 mM MgCl2; 5 mM MnCl2; 2 mM DTT and 0.01% Tween 20. The reaction mixtures are incubated at 37° C. for 60 minutes and residual concentration of ATP in the mixture is determined by adding luciferase-containing Kinase-Glo (Promega) development reagent and counting luminescence levels using Fusion Universal Microplate Analyzer (PerkinElmer). Tested compounds are dissolved in dimethyl sulfoxide to a stock concentration of 10 mM and are typically evaluated in the assay at eight concentrations in 1 nM to 20 μM range, each in quadruplicate. […] IC50 values are derived by non-linear regression analysis using Prism 3.0 software (Graphpad Software). […]

human myeloma cell lines [6] = assay: Effect on apoptosis, PI/annexin V staining; type: cell-based; settings: sensitive cell lines; 48 or 72 hours; 0.6 μM and 1.8 μM
Procedure: as §2, with “7” for “6”, “apoptosis.” for “cell cycle.”, “48 or 72” for “24”, “apoptosis” for “cell cycle”, “PI/annexin V” for “PI”, “viable (PI−/annexin V−) cells.” for “cells in G0-G1 or S phase.”
4 human myeloma cell lines (3 sensitive and 1 resistant) were incubated for 48 or 72 hours with the compounds of the invention, including compounds (2a) and (2b), having a concentration of 0.6 μM and 1.8 μM and effect on apoptosis was assessed by PI/annexin V staining. Results are reported as percentage of viable (PI−/annexin V−) cells.

[7] = Toxicity in animals, body weight (FIG. 13); type: in vivo; settings: highest doses tested

T1 sequence (P08069 999-1274 limits assumed): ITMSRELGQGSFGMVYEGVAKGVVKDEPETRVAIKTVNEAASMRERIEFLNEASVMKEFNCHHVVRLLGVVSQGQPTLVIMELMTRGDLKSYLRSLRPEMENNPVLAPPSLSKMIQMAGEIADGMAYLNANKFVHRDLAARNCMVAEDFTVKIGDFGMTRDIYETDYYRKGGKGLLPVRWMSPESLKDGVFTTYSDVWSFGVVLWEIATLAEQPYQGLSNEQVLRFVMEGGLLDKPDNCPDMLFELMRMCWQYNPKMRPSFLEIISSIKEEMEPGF

Question: With `CC(=O)CCN1CCC(N2Cc3cc4nc(-c5c(NCC(=O)COc6ccc(C)cc6C)cc[nH]c5=O)[nH]c4cc3C2=O)CC1` as the molecule, how does the IC50 (RPMI-8226) read?
Answer: Its IC50 is 5 to 20 µM.

Question: What about the IC50 (SKMM2) of the same molecule?
Answer: The IC50 was 5 to 20 µM.

Question: And the IC50 (My5)?
Answer: The IC50 was 5 to 20 µM.

Question: What about the IC50 (JJN3) of the same molecule?
Answer: Its IC50 is 5 to 20 µM.

Question: And the IC50 [1]?
Answer: Its IC50 is at least 20 µM.

Question: And the IC50 [2]?
Answer: Its IC50 is at least 20 µM.

Question: What about the IC50 (MM1r) of the same molecule?
Answer: Its IC50 is 1 to 5 µM.

Question: And the IC50 (MM1s)?
Answer: The IC50 was 1 to 5 µM.

Question: And the IC50 (CPM2)?
Answer: Its IC50 is 1 to 5 µM.

Question: What about the IC50 (KMS12PE) of the same molecule?
Answer: Its IC50 is 5 to 20 µM.

Question: And the IC50 (KMS18)?
Answer: Its IC50 is 5 to 20 µM.

Question: And the IC50 (My7)?
Answer: The IC50 was 5 to 20 µM.

Question: What about the IC50 (UTMC2) of the same molecule?
Answer: The IC50 was under 0.5 µM.

Question: And the IC50 (H929)?
Answer: The IC50 was 1 to 5 µM.

Question: What about the IC50 (U266) of the same molecule?
Answer: Its IC50 is 1 to 5 µM.

Question: What about the IC50 (KMS11) of the same molecule?
Answer: The IC50 was 5 to 20 µM.

Question: Which results are given for `Cc1ccc(OC[C@H](O)CNc2cc[nH]c(=O)c2-c2nc3cc4c(cc3[nH]2)CN(C2CCN(C)CC2)C4=O)c(C)c1` [2a]?
Answer: effect on cell cycle (percentage of cells in G0-G1 or S phase) (human myeloma cell lines [3]): induced significant G1 growth arrest; activity in multiple myeloma cell line H929 [4]: active; toxicity in normal cell line CHO (normal cell line CHO): demonstrated toxicity; toxicity in normal cell line HEK293 (normal cell line HEK293): demonstrated toxicity; apoptosis of myeloma cells ([5]; 24 hr): induced significant apoptosis of myeloma cells; apoptosis of myeloma cells ([5]; 48 hr): induced significant apoptosis of myeloma cells; apoptosis of myeloma cells ([5]; 96 hr): induced significant apoptosis of myeloma cells; IGF-1R potency in vitro (IGF1R tyrosine kinase): same potency range as known preclinical compounds; effect on apoptosis (percentage of viable PI−/annexin V− cells) (human myeloma cell lines [6]): induced significant apoptosis

Question: For `Cc1ccc(OC[C@H](O)CNc2cc[nH]c(=O)c2-c2nc3cc4c(cc3[nH]2)CN(C2CCN(CCS(C)(=O)=O)CC2)C4=O)c(C)c1` [2b], which “effect on cell cycle (percentage of cells in G0-G1 or S phase)” value (human myeloma cell lines [3]) is on record?
Answer: Its value is “induced significant G1 growth arrest”.

Question: What about the “activity in multiple myeloma cell line H929” value [4] of the same molecule?
Answer: Its value is “active”.

Question: And the “selectivity towards multiple myeloma lines” value [4]?
Answer: The value was “highly selective”.

Question: What about the “toxicity in normal cell line CHO” value (normal cell line CHO) of the same molecule?
Answer: Its value is “did not demonstrate toxicity”.

Question: What about the “toxicity in normal cell line HEK293” value (normal cell line HEK293) of the same molecule?
Answer: The value was “did not demonstrate toxicity”.

Question: What about the “selectivity, viable myeloma cells versus viable non-myeloma cells” value ([5]; primary patient sample, 24, 48 and 96 hours) of the same molecule?
Answer: The value was “more selective”.

Question: And the “apoptosis of myeloma cells” value ([5]; 24 hr)?
Answer: The value was “induced significant apoptosis of myeloma cells”.

Question: What about the “apoptosis of myeloma cells” value ([5]; 48 hr) of the same molecule?
Answer: Its value is “induced significant apoptosis of myeloma cells”.

Question: What about the “apoptosis of myeloma cells” value ([5]; 96 hr) of the same molecule?
Answer: Its value is “induced significant apoptosis of myeloma cells”.

Question: What about the “IGF-1R potency in vitro” value (IGF1R tyrosine kinase) of the same molecule?
Answer: Its value is “same potency range as known preclinical compounds”.

Question: What about the “IGF-1R potency in vitro” value (IGF1R tyrosine kinase; listed as CRL130323) of the same molecule?
Answer: Its value is “comparable IGF-1R potency”.

Question: What about the “toxicity in animals (body weight)” value [7] of the same molecule?
Answer: The value was “no signs of toxicity”.

Question: And the “toxicity in animals (body weight)” value ([7]; listed as CRL130323)?
Answer: The value was “no observable toxicity”.

Question: What about the “effect on apoptosis (percentage of viable PI−/annexin V− cells)” value (human myeloma cell lines [6]) of the same molecule?
Answer: Its value is “induced significant apoptosis”.
